Results from patent US12686866B2, “Methods of treating cancer by suppression of FAMIN expression” (Cambridge Enterprise Limited, priority 2018, dated 2026).

What was measured:
Assay type in all cases: biochemical
recombinant FAMIN [1] = biological target: T1, recombinant FAMIN (Homo sapiens, UniProt Q8IV20); test: FAMIN adenosine phosphorylase activity: adenine and R-1-P from adenosine with recombinant FAMIN; conditions: 10 μg recombinant FAMIN, 10 μM adenosine in PBS, 1 h at 37° C., FIG. 11B
T1 sequence (Q8IV20 1-430): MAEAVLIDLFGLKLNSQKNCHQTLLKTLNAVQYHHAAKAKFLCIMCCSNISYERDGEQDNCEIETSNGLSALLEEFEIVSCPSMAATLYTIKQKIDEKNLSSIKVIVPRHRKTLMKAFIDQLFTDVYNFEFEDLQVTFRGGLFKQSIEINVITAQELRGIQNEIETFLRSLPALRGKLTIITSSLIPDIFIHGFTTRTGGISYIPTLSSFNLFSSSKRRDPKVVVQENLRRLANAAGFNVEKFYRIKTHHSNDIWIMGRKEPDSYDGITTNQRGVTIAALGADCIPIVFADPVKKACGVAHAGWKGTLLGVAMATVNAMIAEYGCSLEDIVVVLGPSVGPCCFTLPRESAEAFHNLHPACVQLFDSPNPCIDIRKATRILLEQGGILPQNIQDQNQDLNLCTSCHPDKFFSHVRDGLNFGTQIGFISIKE
Text: (§1) FIGS. 11B and 11C show levels of adenine and ribose-1-phosphate (R-1-P) in the reaction described in FIG. 11A.

recombinant FAMIN [2] = biological target: T1, recombinant FAMIN; test: FAMIN purine nucleoside phosphorylase activity: hypoxanthine and R-1-P from inosine with recombinant FAMIN; conditions: 10 μg recombinant FAMIN, 10 μM inosine in PBS, 1 h at 37° C.; FIG. 11D, E
Text: as §1

recombinant FAMIN [3] = biological target: T1, recombinant FAMIN; test: FAMIN adenosine deaminase activity: inosine generated from adenosine by recombinant FAMIN; conditions: 10 μg recombinant FAMIN, 10 μM adenosine in PBS, 1 h at 37° C.; FIG. 11A
Text: as §1

SMILES	effect on FAMIN's adenosine phosphorylase activity (adenine and R-1-P levels) (recombinant FAMIN [1])	effect on FAMIN's purine nucleoside phosphorylase activity (hypoxanthine and R-1-P levels) (recombinant FAMIN [2])	effect on FAMIN's adenosine deaminase activity (generation of inosine from adenosine) (recombinant FAMIN [3])
Nc1nc2c(nc(N)n2[C@@H]2O[C@H](CO)[C@@H](O)[C@H]2O)c(=O)[nH]1 [8-aminoguanosine]	leaving FAMIN's adenosine phosphorylase activity intact	active on FAMIN's purine nucleoside phosphorylase activity	–
CCCCCC[C@@H]([C@@H](C)O)n1cnc2c(N)ncnc21 (racemic) [EHNA, erythro-9-(2-hydroxy-3-nonyl) adenine]	–	–	inhibit FAMIN's adenosine deaminase activity
